# Results from PMC3024946, “Hydroxyproline-containing collagen analogs trigger the release and activation of collagen-sequestered proMMP-2 by competition with prodomain-derived peptide P33-42” (Fibrogenesis & Tissue Repair, 2011).
# Entries after “also recorded” stand apart in the source; their conditions may differ.
# How the values were obtained:
# ActMMP-2 = test: Solid-phase binding of [125I]-actMMP-2 to immobilized collagens/peptides (microwells); parameters: species or system human; conditions: ActMMP-2, 2 ng/well; coated wells; 4°C, 2 h; residual radioactivity; mean ± SD, at least five experiments in triplicate
# Method: (§1) Human recombinant proMMPs and in vitro activated MMPs were obtained from Invitek and were labeled with the [^125I]-Bolton-Hunter reagent according to the manufacturer's instructions (PerkinElmer, Rodgau, Germany) before the buffer was exchanged for phosphate-buffered saline (PBS) with 0.05% (vol/vol) Tween 20 by gel filtration as described previously. Specific radioactivity for [^125I]-MMPs was 3-9 × 10^4 cpm/ng. Precipitation with 10% (wt/vol) trichloroacetic acid and 200 μg of BSA recovered 96% to 100% of protein-bound radioactivity. Aliquots of labeled MMPs were frozen and stored at -80°C. The activity and integrity were checked by substrate gel zymography using SDS-PAGE and autoradiography with overnight exposure to Biomax MS film (Kodak, Stuttgart, Germany) (Figure 2A).
# (§2) Native human CI, CIII and CVI were purified from skin tissue and placenta. The CI single chains α1(I) and α2(I) were obtained and modified as described previously. To prepare defined fragments, 2 mg of α1(I) were dissolved in 1 ml of 70% (vol/vol) formic acid at room temperature, the tubes were flushed with nitrogen for 10 min, and then 2 mg of CB were added. After incubation for 4 h at 37°C, free CB was neutralized and the samples were lyophilized. The peptides CB3, CB6, CB7 and CB8 were separated from the reaction mixture by gel filtration followed by ion-exchange chromatography. The resulting peptides were characterized by amino acid analysis and SDS-PAGE [45, 46]. The CB peptides had the following melting temperatures: CB3, 23.9°C; CB6, 26.7°C; CB7, 28.1°C; and CB8, 28.0°C [31].
# (§3) The following collagen analogs and control peptides were synthesized as described previously: (GPO)10, H-Gly-Cys-Hyp-(Gly-Pro-Hyp)10-Gly-Cys-Hyp-Gly-NH2; (GPP)10, H-Gly-Cys-Pro-(Gly-Pro-Pro)10-Gly-Cys-Pro-Gly-NH2; and GAP, H-Gly-Ala-Cys-(Gly-Ala-Pro)5-Gly-Phe-Hyp-Gly-Glu-Arg-(Gly-Ala-Pro)5-NH2. Peptides (POG)10, (PPG)10 and (POG)5 were purchased from Peptide International (Louisville, KY, USA). Spontaneous triple-helix assembly was approved by polarimetry over a 10-cm path length at 1°C/min in 10 mM phosphate buffer, pH 7.4. At 5 mg/ml, midpoints of melting curves occurred at 82.3 ± 1.4°C for (GPO)10 and at 45.8 ± 0.8°C for (GPP)10. […] Graphs were calculated from the primary data using a custom fitting program written by D.A. Slatter (Department of Biochemistry, University of Cambridge, Cambridge, UK [48]) to model different possible transitions. All collagens, CI derivatives and peptides were stored in stock solutions of 2 mg/ml in 150 mM acetic acid at -20°C.
# (§4) ProMMP-2 and proMMP-9 or actMMP-2 and actMMP-9 were bound to nitrocellulose and polystyrene-immobilized native collagens, CI chains, CB peptides or structural analogs. Serial dilutions of collagens or CI derivatives in 150 mM acetic acid were dotted at 3 × 3 μl to a nitrocellulose membrane with high protein-binding capacity (GE Healthcare, Munich, Germany). Air-dried membranes were blocked with PBS and 0.3% (vol/vol) Tween 20 overnight at 4°C, washed three times, and incubated with 1 ng/ml [^125I]-pro- and actMMP-2 and pro- and actMMP-9 in PBS and 0.3% (vol/vol) Tween 20 for 2 h at room temperature. Membranes were washed again and air-dried, and bound MMP was monitored by autoradiography. In parallel, polystyrene microtiter plates (Dynex, Chantilly, VA, USA) were coated with collagen proteins and peptides. Here 2 μg/well or 200 ng/well proteins and peptides or BSA as control were immobilized in 100 μl of 50 mM ammonium bicarbonate buffer, pH 9.6, by overnight incubation at 4°C. Immobilization efficacies were 20% to 45% of total proteins. Wells were washed three times with PBS, and nonspecific binding sites were blocked with PBS and 0.05% (vol/vol) Tween 20 for 1 h at room temperature. All incubation steps were performed with 2 ng of [^125I]-MMPs at 4°C for 2 h. […]
# ProMMP-9 = test: Solid-phase binding of [125I]-proMMP-9 to immobilized collagens/peptides (microwells); parameters: species or system human; conditions: for Binding of [125I]-MMPs: ProMMP-9, 2 ng/well, coated wells, 4°C, 2 h, residual radioactivity, mean ± SD, at least five experiments in triplicate
# Method: as §1, §2, §3, §4
# ProMMP-2 = test: DQ-gelatine degradation assay with MMP-2; type: biochemical, human; conditions: 5 h at 25°C
# Method: Enzymatic activities of MMPs were studied spectrofluorimetrically by cleavage of fluorogenic substrates in MMP activity buffer within 2 to 5 h. For gelatinases 800 nM MCA-Pro-Leu-Gly-Leu-Dnp-Dap-Ala-Arg-NH2 (λex/em 328/393 nm; Bachem, Bubendorf, Switzerland) or 10 μg/ml DQ-gelatine were used, according to the method described by Knight et al. for collagenases 800 nM MCA-Pro-Cha-Gly-Nva-His-Ala-Dpa-NH2 (λex/em 280/360 nm; Anaspec, San José, CA, USA). In some experiments, proMMP-2 was fully activated in the presence of 1 mM APMA prior to the kinetic measurements. A quantity of 50 ng pro- or actMMP-2 alone or mixed with 10- to 150-fold molar excesses of (GPO)10, GAP, P33-42 or mixtures of (GPO)10 and P33-42, were added to CI-coated, BSA-coated (1 μg/well both) or uncoated wells containing 150 μl of the respective substrate solution. The peptide P33-42 was purchased from the Institute of Biochemistry (Humboldt-University, Berlin, Germany). The influence of CI on MMP-2 enzymatic activity against the quenched fluorescent substrate could be excluded. Background subtraction (measurement without MMPs) was applied to all curves. All experiments were performed with a fluorescence microplate reader (Molecular Devices, Sunnyvale, CA, USA) and black 96-well microtiter plates with a clear bottom (Greiner bio-one, Frickenhausen, Germany).
# ActMMP-9 = test: Solid-phase binding of [125I]-actMMP-9 to immobilized collagens/peptides (microwells); parameters: species or system human; conditions: ActMMP-9, 2 ng/well; coated wells; 4°C, 2 h; residual radioactivity; mean ± SD, at least five experiments in triplicate
# Method: as §1, §2, §3, §4
# [1] = Triple-helix melting temperature; type: physicochemical; conditions: polarimetry; 5 mg/ml; 10 mM phosphate buffer, pH 7.4, 1°C/min
# Method: as §2, §3
Binding of [125I]-MMPs (ActMMP-2),Binding of [125I]-MMPs (ProMMP-9),binding of proMMP vs respective actMMP (ProMMP-9; proMMP-9 vs actMMP-9 (stated jointly for MMP-2 and MMP-9)),Binding of [125I]-MMPs (ActMMP-9),midpoint of melting curve [1],Substance,DQ-gelatine cleavage by proMMP-2 (ProMMP-2; 50- to 100-fold molar excesses),DQ-gelatine cleavage by proMMP-2 (ProMMP-2; 150-fold molar excess)
6.2 ± 3.1 % of maximum control,36.1 ± 1.7 % of maximum control,two- to sevenfold more strongly,5.4 ± 0.6 % of maximum control,82.3 ± 1.4 °C,"H-Gly-Cys-Hyp-(Gly-Pro-Hyp)10-Gly-Cys-Hyp-Gly-NH2 [(GPO)10, triple-helical Hyp-containing collagen analog]",significantly enhanced,shift from an active MMP-2 to an enzymatically blocked enzyme; also recorded: reduction of MMP-2 gelatinolytic activity
2.1 ± 0.7 % of maximum control,4.9 ± 0.7 % of maximum control,–,0.9 ± 0.4 % of maximum control,45.8 ± 0.8 °C,"H-Gly-Cys-Pro-(Gly-Pro-Pro)10-Gly-Cys-Pro-Gly-NH2 [(GPP)10, Triple-helical Gly-Pro-Pro (GPP)10, devoid of Hyp]",–,–
